Structures can show the parent of a compound that is named as a salt. Where two headings read alike, the source gives them in different places.
Experiments:
[1] = laser diffraction; for Size of crystals, 10% < / Size of crystals, 50% < / Size of crystals, 90% < / Size of crystals, Mean: quetiapine conc. 20 w-%, ethanol-water 80 w-% (Example 5), 85 w-% (Example 6)
Procedure: In examples 5 and 6 the crystal size analysis was performed using laser diffraction analyser (light scattering). Volume cell was 15 ml, optical length 0.6 cm, obscuration about 8 to 12%. Methyl siloxane was used as a dispersant.

## OCCOCCN1CCN(C2=Nc3ccccc3Sc3ccccc32)CC1 [quetiapine hemifumarate, 11-(4-[2-(2-hydroxyethoxy)ethyl]-1-piperazinyl]dibenzo[b,f]-1,4-thiazepine hemifumarate (2:1) salt]
Ratio of alcohol to water 77:22
  size of crystals: 50-100 microns
Ratio of alcohol to water 91:9
  size of crystals: 10-20 microns
[1]; water content of crystallization solvent between 15 to 20 w-%
  90% of the crystals below: below 244 μm

## OCCOCCN1CCN(C2=Nc3ccccc3Sc3ccccc32)CC1 [Example 5, quetiapine hemifumarate]
[1]
  Size of crystals, 10% <: 10% < 25 μm
  Size of crystals, 50% <: 50% < 83 μm
  Size of crystals, 90% <: 90% < 244 μm
  Size of crystals, Mean: Mean: 108 μm

## OCCOCCN1CCN(C2=Nc3ccccc3Sc3ccccc32)CC1 [Example 6, quetiapine hemifumarate]
[1]
  Size of crystals, 10% <: 10% < 14 μm
  Size of crystals, 50% <: 50% < 44 μm
  Size of crystals, 90% <: 90% < 148 μm
  Size of crystals, Mean: Mean: 60 μm

Source: patent publication US8044038B2 (Fermion Oy, priority 2005, dated 2011)
